Measured values as given in patent US8404727B2, “Pharmaceutical composition that includes a dipeptidyl peptidase-IV inhibitor” (Glenmark Pharmaceuticals S.A., priority 2009, dated 2013).
Structures can show the parent of a compound that is named as a salt.

Experiments:
[1] = Compatibility study of melogliptin mesylate with various excipients: related substances (RS) by HPLC; assay type: physicochemical; settings: sealed glass vial
Source text: Melogliptin Mesylate was Subjected for Compatibility Studies in Solid State Condition with Dry Mixing Technique Using the Following Protocol:
Melogliptin mesylate and various excipients in predetermined w/w ratios were mixed geometrically. Melogliptin mesylate to excipients ratios were selected based on the excipients concentration expected to be used during the development of the formulation. The placebo of each excipient used was kept on respective stability conditions as control.
The samples were stored in glass vials. The vials were closed with rubber stoppers and sealed with aluminum seals, and kept in upright position.
The vials were stored at three storage conditions: 25° C., 30° C. and 40° C.
The samples were analyzed initially, then followed by the end of 1 week, 2 weeks and 4 weeks time periods for related substances (RS), as monitored by HPLC and differential scanning calorimetry (DSC), to study the interaction between melogliptin and various excipients.
The compatibility data in terms of RS generated initially and upon 4 weeks (“4 W”) storage at about 40° C. of various samples are tabulated below.
Brief Analytical Method for Determination of RS in Melogliptin Mesylate:
A reversed-phase gradient HPLC method was developed. The analysis was performed using C18 HPLC column (Phenomenex Gemini 110 A, C-18, 50×4.6 mm, 3 μm). The mobile phase was a gradient mixture of a solution of 1.26 g of ammonium formate in 1000 ml of purified water adjusted to pH 8.4 using 25% v/v ammonia solution (Mobile Phase A) and a solution of 1.26 g of ammonium formate in a mixture of purified water (800 ml) and acetonitrile (200 ml) adjusted to pH 8.4 using 25% v/v ammonia solution (Mobile Phase B). The gradient program is provided below. The flow rate was 1.0 ml/min; injection volume 20 μl; and column temperature was 25° C. Suitable dilutions of the placebo, standard and test samples were injected in the column. Areas for impurity A (eluted at the relative retention time of 0.51) and total RS in the chromatogram were integrated, and accordingly the contents of impurity A and total RS were determined.

[2] = 4 weeks storage at about 40° C.
[3] = dry mix of melogliptin mesylate with excipient, initial

SMILES: N#C[C@@H]1C[C@H](F)CN1C(=O)CN[C@@H]1CC[C@H](Cn2cncn2)C1 [Melogliptin mesylate, (2S,4S)-1-{2-[(3S,1R)-3-(1H-1,2,4-triazol-1-ylmethyl)cyclopentylamino]acetyl}-4-fluoropyrrolidine-2-carbonitrile]
- RS by HPLC, Impurity A, 4 W [1, 2]: 0.05 % w/w
- RS by HPLC, Total RS, 4 W [1, 2]: 0.13 % w/w
- RS by HPLC, Impurity A, Initial [1, 3]: 0.02 % w/w
- RS by HPLC, Total RS, Initial [1, 3]: 0.12 % w/w

SMILES: N=C1[C@@H]2C[C@H](F)CN2C(=O)CN1[C@@H]1CC[C@H](Cn2cncn2)C1 (stereo in doubt) [Example 11, 7-fluoro-1-imino-2-[3-(1H-1,2,4-triazol-1-ylmethyl)cyclopentyl] hexahydropyrrolo[1,2-a]pyrazin-4(1H)-one]
- melting point: 158 to 162 °C

SMILES: N=C1[C@@H]2C[C@H](F)CN2C(=O)CN1[C@@H]1CC[C@H](Cn2cncn2)C1 (stereo in doubt) (as salt: mesylate) [impurity A, 7-fluoro-1-imino-2-[3-(1H-1,2,4-triazol-1-ylmethyl)cyclopentyl] hexahydropyrrolo[1,2-a]pyrazin-4(1H)-one mesylate]
- melting point: 150 to 160 °C
